From US8409820B2, “Kinase sensors” (Massachusetts Institute of Technology, priority 2009, dated 2013)

How the values were obtained:
Type in all cases: physicochemical
[1] = Fluorescence analysis of 8-hydroxyquinoline derivatives in the presence of excess Mg2+ under buffered aqueous conditions; conditions: 10 μM compound; for λem / λex: 10 mM MgCl2, 150 mM NaCl, 50 mM HEPES (pH 7.4), 25° C.
Procedure: (§1) This example describes the synthesis and screening of Oxn derivatives. A selection of substituted hydroxyquinoline derivatives related to a sulfonamide derivative (FIG. 1, complex 1), but bearing different acceptor groups at position 5 (FIG. 1, complexes 2-7) was prepared using previously described methods. These analogs were screened for fluorescence in the presence of excess Mg^2+ and under buffered aqueous conditions. FIG. 1 lists fluorescence data for compounds 1-7. Spectra were acquired in 150 mM NaCl, 50 mM HEPES (pH 7.4), 25° C. with 10 μM 1-7 and 10 mM MgCl2. Excitation of all species is provided at λmax […].
Azide 8 (FIG. 2) was prepared using previously reported methods. […] In the presence of catalytic Cu(I) and ascorbic acid, 8 reacted readily at room temperature with 1-ethynylcyclohexene (9a) in DMF/4-methylpiperidine (8:2) to afford the cycloaddition product 10a in essentially quantitative yield. […] The fluorescence properties of the triazole-substituted quinolines were investigated for the products from the 1,3-dipolar cycloaddition reaction of 8 with 21 additional alkynes (9b-v) (FIG. 2).
(§2) The fluorophores were then qualitatively compared in a 96-well plate (transilluminator; λex=365 nm) to identify promising compounds (FIG. 3) and were further subjected to quantitative analysis in a fluorescence plate reader (FIG. 8). In FIG. 8, the quantum yields of selected fluorophores were calculated with reference to quinine sulphate (in […] H2SO4) as a standard (vide infra). Compound 10u has ε355=7905 cm^−1M^−1 (vide infra). The excitation and emission wavelengths of the triazole products (10b-v, λex=360-375 nm, λem=510-530 nm) were improved compared to those for Sox (1, λex=360 nm, λem=485 nm, Φ=0.342, ε355=8,247 cm^−1M^−1). Based on the preliminary screening, selected targets were then synthesized in larger quantities and the quantum yields of the corresponding hydroxyquinoline derivatives were determined. Compared to 10a (Φ=0.033) a 3.5-fold improvement in quantum yield was obtained in the case of the bromide 10u (λex=375 nm, λem=525 nm, Φ=0.111, ε355=7,905 cm^−1M^−1). In view of the fluorescent properties of this derivative, it was chosen for use as a chelation-sensitive fluorophore to prepare probes for mitogen-activated protein kinase-activated protein kinase-2 (MK2), and sarcoma kinase (Src), used as models of Ser/Thr and Tyr kinases, respectively. For the purposes of comparison, the analogous fluorescent peptides containing the original Sox chromophore were also prepared as previously described.
Fluorescence Experiments. • a. Fluorescence analysis of 8-hydroxyquinoline click products. A 96-well microtier plate was used in the experiments for preliminary examination of fluorescence properties. The overall volume in each well was 200 microliters. Individual reactions contained the crude product from the click chemistry reaction (10 micromolar dissolved in DMSO), MgCl2 (10 mM), NaCl (150 mM) and HEPES (50 mM) at 25° C. (pH 7.4). The fluorescence spectra were recorded with fixed excitation at 370 nm and emission at 525 nm. Based on the preliminary screening, selected products were then synthesized in larger quantities and the quantum yields of the corresponding hydroxyquinoline derivatives were determined.

[2] = Quantum yield determination (quinine sulphate standard); conditions: for quantum yield Φ: with reference to quinine sulphate, 4 micromolar oxine derivative, 50 mM MgCl2, 20 mM HEPES (pH 7.4)
Procedure: as §1, §2
c. Quantum yield determination. The quantum yield (Φ) was determined in 20 mM HEPES (pH 7.4). Quinine sulphate dihydrate (QS, Fluka, puriss. for fluorescence) in 0.1 M H2SO4 was used as a standard (Φ=0.55). A 4 micromolar solution of the corresponding oxine derivative with 50 mM MgCl2 was compared to a 4 micromolar solution of quinine sulfate to assure that the absorbance (A360) is less than 0.05 at identical excitation wavelengths. The following equation was used to calculate the quantum yield: Φ=IAQSΦQS/AIQS where A=A360 and I=integrated fluorescence intensity (λex=360 nm). The calculated Φ assumes that the refractive index of 0.1 M H2SO4 is identical to that of 20 mM HEPES (pH 7.4). […]

[3] = Observation of oxidation of the chromophore
[4] = Extinction coefficient determination
Procedure: 1. Stock solutions of the peptides were prepared in doubly deionized water and concentrations were determined by UV-Vis (based on the determined extinction coefficient of the fluorophore moiety, either 1 (Sox), ε355=8247 M^−1 cm^−1 or 10u (Clk), ε360=7905 M^−1 cm^−1 in 0.1 M NaOH with 1 mM Na2EDTA). An average of the values from three separate solutions, each prepared using a different volume of the stock solution, was read on UV-Vis spectrophotometer. Purified peptide stock solutions could be stored at 4° C. for at least 6 months or −20° C. for longer periods.
b. Extinction coefficient determination. Extinction coefficients of 1 and 10u were measured in 50 mM HEPES (pH 7.0), 150 mM NaCl. The εmax values were determined by plotting absorbance at 360 nm versus concentration for four chromophore solutions with concentrations between 20 and 60 micromolar and including 1 mM MgCl2.

| λem [1] [nm] | λex [1] [nm] | quantum yield Φ [2] | excitation and emission wavelengths compared with 1 (in words) ([1]; 10 mM MgCl2, pH 7.4) | quantum yield compared with 1 (in words) ([2]; 10 μM compound, 10 mM MgCl2, pH 7.4) | stability of the aldehyde group (in words) [3] | improvement in quantum yield compared to 10a ([2]; compared to 10a (Φ=0.033)) [fold] | extinction coefficient ε355 ([4]; Example 1, 50 mM HEPES (pH 7.0), 150 mM NaCl, 1 mM MgCl2) | extinction coefficient ε360 ([4]; in 0.1 M NaOH with 1 mM Na2EDTA) [M⁻¹ cm⁻¹] | SMILES |
| --- | --- | --- | --- | --- | --- | --- | --- | --- | --- |
| 522 | 371 | 0.033 |  |  |  |  |  |  | Oc1ccc(-n2cc(C3=CCCCC3)nn2)c2cccnc12 [Compound 10a, 8-Hydroxy-5-(4-cyclohexenyl-1H-1,2,3-triazol-1-yl)quinoline] |
|  |  |  | shorter λem | improved quantum yield | readily oxidized |  |  |  | Cc1ccc2c(C=O)ccc(O)c2n1 [Compound 2, 5-Carbaldehyde-8-Hydroxy-2-methylquinoline, reference compound] |
| 525 | 375 | 0.111 |  |  |  | 3.5 | 7,905 cm^−1M^−1 | 7905 | Oc1ccc(-n2cc(-c3ccc(Br)cc3)nn2)c2cccnc12 [Compound 10u, 8-Hydroxy-5-(4-(4-bromophenyl)-1H-1,2,3-triazol-1-yl)quinoline] |
